Assay [1] has as its system IFNγ-induced NO production in RAW264.7 macrophages. The assay can be described thus: Suppression of IFNγ-induced NO production (Griess reagent). It is filed as cell-based, mouse. The conditions noted are these: Mus musculus, 2 h pre-treatment, then 20 ng/ml IFNγ for 24 hours. As to the method:
(§1) FIGS. 1-34. Inhibition of NO Production. RAW264.7 macrophages were pre-treated with DMSO or drugs at various concentrations (nM) for 2 hours, then treated with 20 ng/ml IFNγ for 24 hours. NO concentration in media was determined using the Griess reagent system; cell viability was determined using WST-1 reagent. FIGS. 49-52. Inhibition of NO Production. RAW264.7 macrophages were pre-treated with DMSO or drugs at various concentrations (nM) for 2 hours, then treated with 20 ng/ml IFNγ for 24 hours. NO concentration in media was determined using the Griess reagent system; cell viability was determined using WST-1 reagent. RAW264.7 macrophages were pre-treated with DMSO or drugs for 2 hours, then treated with recombinant mouse IFNγ (Sigma) for 24 hours. NO concentration in media was determined using the Griess reagent system (Promega). Cell viability was determined using WST-1 reagent (Roche).
(In general: Nitrite, measured by Griess reagent, commonly stands in for NO production.)

The next assay relates to RAW264.7 macrophages. The assay can be described thus: Cell viability, WST-1 reagent. Particulars: Mus musculus, 2 h pre-treatment, then 20 ng/ml IFNγ for 24 hours. The assay is classed as cell-based, mouse. As to the method: as §1
(In general: Tetrazolium assays rely on reduction of a dye to a coloured formazan, in cell work by metabolically active cells.)

The term IC50 denotes the concentration at which inhibition is half-maximal. Regarding `CC1(C)CC[C@]2(NC(=O)Nc3ccc(O)cc3)CC[C@]3(C)[C@H](C(=O)C=C4[C@@]5(C)C=C(C#N)C(=O)C(C)(C)[C@@H]5CC[C@]43C)[C@@H]2C1` [Compound 63148, 1-((4aS,6aR,6bS,8aR,12aS,14aR,14bS)-11-cyano-2,2,6a,6b,9,9,12a-heptamethyl-10,14-dioxo-1,2,3,4,4a,5,6,6a,6b,7,8,8a,9,10,12a,14,14a,14b-octadecahydropicen-4a-yl)-3-(4-hydroxyphenyl)urea], the half-inhibitory concentration (IC50) was approximately 25 nM in assay [1] and more than 200 nM with RAW264.7 macrophages.

`CCOC(=O)N[C@]12CCC(C)(C)C[C@H]1[C@H]1C(=O)C=C3[C@@]4(C)C=C(C#N)C(=O)C(C)(C)[C@@H]4CC[C@@]3(C)[C@]1(C)CC2` [Compound 63168, ethyl-(4aS,6aR,6bS,8aR,12aS,14aR,14bS)-11-cyano-2,2,6a,6b,9,9,12a-heptamethyl-10,14-dioxo-1,2,3,4,4a,5,6,6a,6b,7,8,8a,9,10,12a,14,14a,14b-octadecahydropicen-4a-ylcarbamate]: the figures for the IC50 (in assay [1]; with RAW264.7 macrophages) were 3.2 nM and 150 nM, respectively.

In the case of `CC(=O)N[C@]12CCC(C)(C)C[C@H]1[C@H]1C(=O)C=C3[C@@]4(C)C=C(C#N)C(=O)C(C)(C)[C@@H]4CC[C@@]3(C)[C@]1(C)CC2` [Compound 63170, N-((4aS,6aR,6bS,8aR,12aS,14aR,14bS)-11-cyano-2,2,6a,6b,9,9,12a-heptamethyl-10,14-dioxo-1,2,3,4,4a,5,6,6a,6b,7,8,8a,9,10,12a,14,14a,14b-octadecahydropicen-4a-yl)acetamide], the IC50 in assay [1] was 10.8 nM; in the assay with RAW264.7 macrophages, more than 200 nM.

Regarding `CC1(C)CC[C@]2(NC(=O)C(F)(F)F)CC[C@]3(C)[C@H](C(=O)C=C4[C@@]5(C)C=C(C#N)C(=O)C(C)(C)[C@@H]5CC[C@]43C)[C@@H]2C1` [Compound 63171, N-((4aS,6aR,6bS,8aR,12aS,14aR,14bS)-11-cyano-2,2,6a,6b,9,9,12a-heptamethyl-10,14-dioxo-1,2,3,4,4a,5,6,6a,6b,7,8,8a,9,10,12a,14,14a,14b-octadecahydropicen-4a-yl)-2,2,2-trifluoroacetamide], the IC50 in assay [1] turned out to be 12 nM; in the assay on RAW264.7 macrophages, 90 nM.

On to `CCNC(=O)N[C@]12CCC(C)(C)C[C@H]1[C@H]1C(=O)C=C3[C@@]4(C)C=C(C#N)C(=O)C(C)(C)[C@@H]4CC[C@@]3(C)[C@]1(C)CC2` [Compound 63173, 1-((4aS,6aR,6bS,8aR,12aS,14aR,14bS)-11-cyano-2,2,6a,6b,9,9,12a-heptamethyl-10,14-dioxo-1,2,3,4,4a,5,6,6a,6b,7,8,8a,9,10,12a,14,14a,14b-octadecahydropicen-4a-yl)-3-ethylurea], for which the IC50 was 31 nM in assay [1] and more than 200 nM with RAW264.7 macrophages.

Regarding `CC1(C)CC[C@]2(NC(=O)OCc3ccccc3)CC[C@]3(C)[C@H](C(=O)C=C4[C@@]5(C)C=C(C#N)C(=O)C(C)(C)[C@@H]5CC[C@]43C)[C@@H]2C1` [Compound 63174, benzyl-(4aS,6aR,6bS,8aR,12aS,14aR,14bS)-11-cyano-2,2,6a,6b,9,9,12a-heptamethyl-10,14-dioxo-1,2,3,4,4a,5,6,6a,6b,7,8,8a,9,10,12a,14,14a,14b-octadecahydropicen-4a-ylcarbamate], the IC50 in assay [1] is 26 nM; with RAW264.7 macrophages, 80 nM.

Take `CC1(C)CC[C@]2(NC(N)=O)CC[C@]3(C)[C@H](C(=O)C=C4[C@@]5(C)C=C(C#N)C(=O)C(C)(C)[C@@H]5CC[C@]43C)[C@@H]2C1` [Compound 63176, 1-((4aS,6aR,6bS,8aR,12aS,14aR,14bS)-11-cyano-2,2,6a,6b,9,9,12a-heptamethyl-10,14-dioxo-1,2,3,4,4a,5,6,6a,6b,7,8,8a,9,10,12a,14,14a,14b-octadecahydropicen-4a-yl)urea]: the IC50 in assay [1] is 100 nM; with RAW264.7 macrophages it was more than 200 nM.

Turning to `CC1(C)CC[C@]2(NC(=O)n3cccn3)CC[C@]3(C)[C@H](C(=O)C=C4[C@@]5(C)C=C(C#N)C(=O)C(C)(C)[C@@H]5CC[C@]43C)[C@@H]2C1` [Compound 63178, N-((4aS,6aR,6bS,8aR,12aS,14aR,14bS)-11-cyano-2,2,6a,6b,9,9,12a-heptamethyl-10,14-dioxo-1,2,3,4,4a,5,6,6a,6b,7,8,8a,9,10,12a,14,14a,14b-octadecahydropicen-4a-yl)-1H-pyrazole-1-carboxamide], the IC50 in assay [1] is 6.8 nM; in the assay on RAW264.7 macrophages, 80 nM.

Take `CC1(C)CC[C@]2(NC(=O)CC(F)(F)F)CC[C@]3(C)[C@H](C(=O)C=C4[C@@]5(C)C=C(C#N)C(=O)C(C)(C)[C@@H]5CC[C@]43C)[C@@H]2C1` [Compound 63179, N-((4aS,6aR,6bS,8aR,12aS,14aR,14bS)-11-cyano-2,2,6a,6b,9,9,12a-heptamethyl-10,14-dioxo-1,2,3,4,4a,5,6,6a,6b,7,8,8a,9,10,12a,14,14a,14b-octadecahydropicen-4a-yl)-3,3,3-trifluoropropanamide]: the IC50 in assay [1] is 16 nM; with RAW264.7 macrophages, 100 nM.

With `CN(C)C(=O)N[C@]12CCC(C)(C)C[C@H]1[C@H]1C(=O)C=C3[C@@]4(C)C=C(C#N)C(=O)C(C)(C)[C@@H]4CC[C@@]3(C)[C@]1(C)CC2` [Compound 63180, 3-((4aS,6aR,6bS,8aR,12aS,14aR,14bS)-11-cyano-2,2,6a,6b,9,9,12a-heptamethyl-10,14-dioxo-1,2,3,4,4a,5,6,6a,6b,7,8,8a,9,10,12a,14,14a,14b-octadecahydropicen-4a-yl)-1,1-dimethylurea], the IC50 is 13.5 nM in assay [1] and 200 nM in the assay on RAW264.7 macrophages.

Turning to `CC1(C)CC[C@]2(NC(=O)N3CCCCC3)CC[C@]3(C)[C@H](C(=O)C=C4[C@@]5(C)C=C(C#N)C(=O)C(C)(C)[C@@H]5CC[C@]43C)[C@@H]2C1` [Compound 63181, N-((4aS,6aR,6bS,8aR,12aS,14aR,14bS)-11-cyano-2,2,6a,6b,9,9,12a-heptamethyl-10,14-dioxo-1,2,3,4,4a,5,6,6a,6b,7,8,8a,9,10,12a,14,14a,14b-octadecahydropicen-4a-yl)piperidine-1-carboxamide], the IC50 in assay [1] is 4 to 8 nM; in the assay with RAW264.7 macrophages, 75 nM.

For `CC1(C)CC[C@]2(NC(=O)c3ccccc3)CC[C@]3(C)[C@H](C(=O)C=C4[C@@]5(C)C=C(C#N)C(=O)C(C)(C)[C@@H]5CC[C@]43C)[C@@H]2C1` [Compound 63182, N-((4aS,6aR,6bS,8aR,12aS,14aR,14bS)-11-cyano-2,2,6a,6b,9,9,12a-heptamethyl-10,14-dioxo-1,2,3,4,4a,5,6,6a,6b,7,8,8a,9,10,12a,14,14a,14b-octadecahydropicen-4a-yl)benzamide], the IC50 in assay [1] is 7 to 13 nM; with RAW264.7 macrophages it was 125 nM.

On to `CC(C)OC(=O)N[C@]12CCC(C)(C)C[C@H]1[C@H]1C(=O)C=C3[C@@]4(C)C=C(C#N)C(=O)C(C)(C)[C@@H]4CC[C@@]3(C)[C@]1(C)CC2` [Compound 63184, isopropyl-(4aS,6aR,6bS,8aR,12aS,14aR,14bS)-11-cyano-2,2,6a,6b,9,9,12a-heptamethyl-10,14-dioxo-1,2,3,4,4a,5,6,6a,6b,7,8,8a,9,10,12a,14,14a,14b-octadecahydropicen-4a-ylcarbamate], for which the IC50 in assay [1] was 14.5 nM; with RAW264.7 macrophages, 75 nM.

On to `CC1(C)CC[C@]2(NC(=O)Nc3ccccc3)CC[C@]3(C)[C@H](C(=O)C=C4[C@@]5(C)C=C(C#N)C(=O)C(C)(C)[C@@H]5CC[C@]43C)[C@@H]2C1` [Compound 63249, 1-((4aS,6aR,6bS,8aR,12aS,14aR,14bS)-11-cyano-2,2,6a,6b,9,9,12a-heptamethyl-10,14-dioxo-1,2,3,4,4a,5,6,6a,6b,7,8,8a,9,10,12a,14,14a,14b-octadecahydropicen-4a-yl)-3-phenylurea], for which the IC50 with RAW264.7 macrophages worked out at 50 nM.

For `CC(=O)N[C@]12CCC(C)(C)C[C@H]1[C@H]1C(=O)C[C@@H]3[C@@]4(C)C=C(C#N)C(=O)C(C)(C)[C@@H]4CC[C@@]3(C)[C@]1(C)CC2` [Compound 63321, N-((4aS,6aR,6bR,8aR,12aR,12bR,14aR,14bS)-11-cyano-2,2,6a,6b,9,9,12a-heptamethyl-10,14-dioxo-1,2,3,4,4a,5,6,6a,6b,7,8,8a,9,10,12a,12b,13,14,14a,14b-icosahydropicen-4a-yl)acetamide], the IC50 in assay [1] is approximately 70 nM.

On to `CC1(C)CC[C@]2(NC(=O)C(F)(F)F)CC[C@]3(C)[C@H](C(=O)C[C@@H]4[C@@]5(C)C=C(C#N)C(=O)C(C)(C)[C@@H]5CC[C@]43C)[C@@H]2C1` [Compound 63322, N-((4aS,6aR,6bR,8aR,12aR,12bR,14aR,14bS)-11-cyano-2,2,6a,6b,9,9,12a-heptamethyl-10,14-dioxo-1,2,3,4,4a,5,6,6a,6b,7,8,8a,9,10,12a,12b,13,14,14a,14b-icosahydropicen-4a-yl)-2,2,2-trifluoroacetamide], for which the half-maximal inhibitory concentration (IC50) in assay [1] is approximately 50 nM.

With `CNC(=O)N[C@]12CCC(C)(C)C[C@H]1[C@H]1C(=O)C[C@@H]3[C@@]4(C)C=C(C#N)C(=O)C(C)(C)[C@@H]4CC[C@@]3(C)[C@]1(C)CC2` [Compound 63327, 1-((4aS,6aR,6bR,8aR,12aR,12bR,14aR,14bS)-11-cyano-2,2,6a,6b,9,9,12a-heptamethyl-10,14-dioxo-1,2,3,4,4a,5,6,6a,6b,7,8,8a,9,10,12a,12b,13,14,14a,14b-icosahydropicen-4a-yl)-3-methylurea], the IC50 in assay [1] is approximately 100 nM.

Turning to `COC(=O)N[C@]12CCC(C)(C)C[C@H]1[C@H]1C(=O)C[C@@H]3[C@@]4(C)C=C(C#N)C(=O)C(C)(C)[C@@H]4CC[C@@]3(C)[C@]1(C)CC2` [Compound 63328, methyl (4aS,6aR,6bR,8aR,12aR,12bR,14aR,14bS)-11-cyano-2,2,6a,6b,9,9,12a-heptamethyl-10,14-dioxo-1,2,3,4,4a,5,6,6a,6b,7,8,8a,9,10,12a,12b,13,14,14a,14b-icosahydropicen-4a-ylcarbamate], the IC50 in assay [1] is approximately 25 nM.

For the origin of these results see patent US9670147B2, “Antioxidant inflammation modulators: oleanolic acid derivatives with amino and other modifications at C-17” (REATA PHARMACEUTICALS, INC., priority 2008, dated 2017).
